# In patent publication US20080064668A1, “1,3-Diacylated, 26,27-Alkyl/Haloakyl Vitamin D3 Compounds and Methods of Use Thereof” (BioXell S.p.A., priority 2003, published 2008):
# Tests used:
# IFN-γ production = IFN-γ production in the mixed leukocyte response (MLR); format: cell-based; settings: 120 h; allogeneic PBMC from 2 donors, 5 days, ELISA; read-out: INF-γ IC50
# Experimental: Immature dendritic cells (DC) were prepared as described in Romani, N. et al. (Romani, N. et al. (1996) J. Immunol. Meth. 196:137). IFN-γ production by allogeneic T cell activation in the mixed leukocyte response (MLR) was determined as described in Penna, G., et al., J Immunol., 164: 2405-2411 (2000).
# Briefly, peripheral blood mononuclear cells (PBMC) were separated from buffy coats by Ficoll gradient and the same number (3×10^5) of allogeneic PBMC from 2 different donors were co-cultured in 96-well flat-bottom plates. The vitamin D3 compounds were added to each of the cultures.
# RT4 = test: Proliferation assay using bladder cancer cell lines, RT4; format: cell-based, human; settings: Homo sapiens, RT-4, 72 h, 72 h culture, CyQuant proliferation assay
# Experimental: (§1) Bladder cancer cell lines (T24, RT112, HT1376 and RT4 are human bladder cancer cell lines; NHEK are normal human keratinocytes) were obtained from the European Collection of Cell Cultures (Salisbury, UK). Cells were plated at 3×10^3 per well, in flat bottomed 96-well plates in 100 μl of DMEM medium containing: 5% Fetal Clone I, 50 μg/l gentamicin, 1 mM sodium pyruvate and 1% non-essential amino acids. After culturing for 24 h at 37° C. in 5% CO2, to allow cells to adhere to the plates, VDR ligands (compounds (2), (4), (5) and other vitamin D3 analogs as shown in Table 4) were added at concentrations ranging from 100 μM to 0.3 μM in 100 μl of above-mentioned complete medium. After a further 72 h of culture, cell proliferation was measured using a fluorescence-based proliferation assay kit. (CyQuant Cell Proliferation Assay Kit, Molecular Probes, Eugene, Oreg., USA). The IC50 was calculated from the regression curve of the titration data.
# NHEK = test: Proliferation assay, NHEK normal human keratinocytes; format: cell-based; settings: Homo sapiens, NHEK; 72 h culture, CyQuant proliferation assay
# Experimental: as §1
# NOD mouse body weight = format: in vivo, mice
# Experimental: 1,3-Di-O-acetyl-1,25-dihydroxy-16,23Z-diene-26,27-hexafluoro-19-nor-cholecalciferol (2) was dissolved in ethanol (1 mg/ml) and then diluted in miglyol 812. […]
# RT112 = test: Proliferation assay using bladder cancer cell lines, RT112; format: cell-based, human; settings: Homo sapiens, RT-112, 72 h, 72 h culture, CyQuant proliferation assay
# Experimental: as §1
# ECV = test: Proliferation assay using bladder cancer cell lines, ECV; format: cell-based, human; settings: Homo sapiens; 72 h culture, CyQuant proliferation assay
# [1] = Determination of Maximum Tolerated Dose (MTD)
# Experimental: The maximum tolerated dose of the vitamin D3 compounds of the invention were determined in eight week-old female C57BL/6 mice (3 mice/group) dosed orally (0.1 ml/mouse) with various concentrations of Vitamin D3 analogs daily for four days. Analogs were formulated in miglyol for a final concentration of 0.01, 0.03, 0.1 0.3, 1, 3, 10, 30, 100 and 300 μg/kg when given at 0.1 ml/mouse p.o. daily. Blood for serum calcium assay was drawn by tail bleed on day five, the final day of the study.
smiles,measurement,setting,value
"CC(=O)OC1C/C(=C/C=C2\CCC[C@]3(C)C(C(C)C/C=C\C(O)(C(F)(F)F)C(F)(F)F)=CCC23)C[C@@H](OC(C)=O)C1 (stereo partly shown) [Compound (2), 1,3-Di-O-acetyl-1,25-dihydroxy-16,23Z-diene-26,27-hexafluoro-19-nor-cholecalciferol]",IC50,IFN-γ production,0.000722 µM
same,IC50,RT4,20 µM
same,IC50,NHEK,9.8 µM
same,effect on body weight,NOD mouse body weight; 0.1 mg/Kg or 0.2 mg/Kg dose,did not affect body weight
same,NOD mouse body weight,"NOD mouse body weight; 0.1 mg/kg p.o., week 8",22.07 g
same,NOD mouse body weight,"NOD mouse body weight; 0.1 mg/kg p.o., week 9",22.98 g
same,NOD mouse body weight,"NOD mouse body weight; 0.1 mg/kg p.o., week 10",22.77 g
same,NOD mouse body weight,"NOD mouse body weight; 0.1 mg/kg p.o., week 11",23.4 g
same,NOD mouse body weight,"NOD mouse body weight; 0.1 mg/kg p.o., week 12",24.01 g
same,NOD mouse body weight,"NOD mouse body weight; 0.1 mg/kg p.o., week 13",23.69 g
same,NOD mouse body weight,"NOD mouse body weight; 0.1 mg/kg p.o., week 14",24.1 g
same,NOD mouse body weight,"NOD mouse body weight; 0.1 mg/kg p.o., week 15",24.6 g
same,NOD mouse body weight,"NOD mouse body weight; 0.1 mg/kg p.o., week 16",25 g
same,NOD mouse body weight,"NOD mouse body weight; 0.1 mg/kg p.o., week 17",24.6 g
same,NOD mouse body weight,"NOD mouse body weight; 0.1 mg/kg p.o., week 18",25.1 g
same,NOD mouse body weight,"NOD mouse body weight; 0.1 mg/kg p.o., week 19",25.6 g
same,NOD mouse body weight,"NOD mouse body weight; 0.1 mg/kg p.o., week 20",25.2 g
same,NOD mouse body weight,"NOD mouse body weight; 0.1 mg/kg p.o., week 21",25.6 g
same,NOD mouse body weight,"NOD mouse body weight; 0.1 mg/kg p.o., week 22",25.8 g
same,NOD mouse body weight,"NOD mouse body weight; 0.1 mg/kg p.o., week 23",25.5 g
same,NOD mouse body weight,"NOD mouse body weight; 0.1 mg/kg p.o., week 24",26.8 g
same,NOD mouse body weight,"NOD mouse body weight; 0.1 mg/kg p.o., week 25",26.4 g
same,NOD mouse body weight,"NOD mouse body weight; 0.1 mg/kg p.o., week 26",26.7 g
same,NOD mouse body weight,"NOD mouse body weight; 0.1 mg/kg p.o., week 27",26.5 g
same,NOD mouse body weight,"NOD mouse body weight; 0.2 mg/kg p.o., week 8",21.25 g
same,NOD mouse body weight,"NOD mouse body weight; 0.2 mg/kg p.o., week 9",21.75 g
same,NOD mouse body weight,"NOD mouse body weight; 0.2 mg/kg p.o., week 10",22.06 g
same,NOD mouse body weight,"NOD mouse body weight; 0.2 mg/kg p.o., week 11",22.99 g
same,NOD mouse body weight,"NOD mouse body weight; 0.2 mg/kg p.o., week 12",24.21 g
same,NOD mouse body weight,"NOD mouse body weight; 0.2 mg/kg p.o., week 13",24.4 g
same,NOD mouse body weight,"NOD mouse body weight; 0.2 mg/kg p.o., week 14",24.34 g
same,NOD mouse body weight,"NOD mouse body weight; 0.2 mg/kg p.o., week 15",24.53 g
same,NOD mouse body weight,"NOD mouse body weight; 0.2 mg/kg p.o., week 16",25.01 g
same,NOD mouse body weight,"NOD mouse body weight; 0.2 mg/kg p.o., week 17",24.33 g
same,NOD mouse body weight,"NOD mouse body weight; 0.2 mg/kg p.o., week 18",24.89 g
same,NOD mouse body weight,"NOD mouse body weight; 0.2 mg/kg p.o., week 19",25.29 g
same,NOD mouse body weight,"NOD mouse body weight; 0.2 mg/kg p.o., week 20",24.9 g
same,NOD mouse body weight,"NOD mouse body weight; 0.2 mg/kg p.o., week 21",25.41 g
same,NOD mouse body weight,"NOD mouse body weight; 0.2 mg/kg p.o., week 22",26.36 g
same,NOD mouse body weight,"NOD mouse body weight; 0.2 mg/kg p.o., week 23",25.8 g
same,NOD mouse body weight,"NOD mouse body weight; 0.2 mg/kg p.o., week 24",25.63 g
same,NOD mouse body weight,"NOD mouse body weight; 0.2 mg/kg p.o., week 25",26.12 g
same,NOD mouse body weight,"NOD mouse body weight; 0.2 mg/kg p.o., week 26",27.15 g
same,NOD mouse body weight,"NOD mouse body weight; 0.2 mg/kg p.o., week 27",26.56 g
same,IC50,RT112,1 µM
same,IC50,ECV,55 µM
same,MTD at 4 days,"[1]; female, C57BL/6, mouse, in vivo, po",0.1 µg/kg
same,MTD relative to compound (1),"[1]; mice, MTD of (2) versus parent (1)",more than 300 times
same,MTD compared with the corresponding dihydroxy (parent) compound,[1]; versus (1) or (3),significantly higher
